This is an account of results in patent publication US9006209B2, “Uracyl spirooxetane nucleoside phosphoramidates” (Janssen Products, LP, priority 2010, dated 2015).

Series [1] concerns HIV. Particulars: described in Org. Biomol. Chem., 2003, 3514-3526; cited from earlier work.
Series [2] has as its system HCV replicon (HCV type 1b NS3-NS5B) in Huh-7 luc/neo cells. The series is described as follows: HCV replicon assay (Huh-Luc, luciferase readout). In kind it is cell-based, HCV genotype 1b. Particulars: Hepatitis C virus, Huh-7, 72 h, three days incubation, luciferase activity. On the procedure: (§1) The in vitro antiviral activity against HCV of the compound of formula I was tested in a cellular HCV replicon system based on Lohmann et al. (1999) Science 285:110-113, with the further modifications described by Krieger et al. (2001) Journal of Virology 75: 4614-4624 (incorporated herein by reference), which is further exemplified in the examples section. This model, while not a complete infection model for HCV, is widely accepted as the most robust and efficient model of autonomous HCV RNA replication currently available. It will be appreciated that it is important to distinguish between compounds that specifically interfere with HCV functions from those that exert cytotoxic or cytostatic effects in the HCV replicon model, and as a consequence cause a decrease in HCV RNA or linked reporter enzyme concentration. […]
The replicon cells were plated in 384-well plates in the presence of the test and control compounds which were added in various concentrations. Following an incubation of three days, HCV replication was measured by assaying luciferase activity (using standard luciferase assay substrates and reagents and a Perkin Elmer ViewLux™ ultraHTS microplate imager). […] The inhibitory activity of the compound on luciferase activity was monitored on the Huh-Luc cells, enabling a dose-response curve for the test compound. […]

A short description of series [3]: Cytotoxicity in Huh-7 cells. The class given is cell-based. Particulars: human. On the procedure: as §1, with “concentration. Assays are known in the field for the evaluation of cellular cytotoxicity based for example on the activity of mitochondrial enzymes using fluorogenic redox dyes such as resazurin. Furthermore, cellular counter screens exist for the evaluation of non-selective inhibition of linked reporter gene activity, such as firefly luciferase.” for “concentration.”

Regarding `Cc1cn([C@@H]2O[C@H](CO)[C@@H](O)[C@]23CCO3)c(=O)[nH]c1=O` [1-(2-O,2-C-ethano-β-D-ribofuranosyl)thymine], in series [1], the “activity against HIV” value was “no activity was found”.

With `O=c1ccn([C@@H]2O[C@H](CO)[C@@H](O)[C@]23CCO3)c(=O)[nH]1` [1-(2-O,2-C-ethano-β-D-ribofuranosyl)uracil], in series [1], the “activity against HIV” value was “no activity was found”.

Take `CCCCOC(=O)[C@H](C)N[P@@](=O)(OC[C@H]1O[C@@H](n2ccc(=O)[nH]c2=O)[C@@]2(CCO2)[C@@H]1O)Oc1ccccc1` [P1, butyl N-[(R)-{[(4R,5R,7R,8R)-5-(2,4-dioxo-3,4-dihydro-pyrimidin-1(2H)-yl)-8-hydroxy-1,6-dioxaspiro[3.4]oct-7-yl]methoxy}(phenoxy)-phosphoryl]-L-alaninate]: in series [2], the EC50 (in general, the concentration giving half of the maximal effect) worked out at 4.47 µM. In series [3], the CC50 (in general, the concentration at which the toxic effect on the cells reaches its halfway point) is above 98 µM.
